Key:
BLK = biological target: T1, BLK (Homo sapiens, UniProt P51451); experiment: KinomeScan; type: binding; details: read-out: % Control
T1 construct: purchased DiscoveRx (Fremont, CA)

CDK7 = biological target: T2, CDK7 (Homo sapiens, UniProt P50613); experiment: KinomeScan; type: binding; details: read-out: % Control
T2 construct: purchased DiscoveRx (KinomeScan service)

EIF2AK1 = biological target: T3, EIF2AK1 (Homo sapiens, UniProt Q9BQI3); experiment: KinomeScan; type: binding; details: read-out: % Control
T3 construct: purchased DiscoveRx (Fremont, CA)

EPHB2 = biological target: T4, EPHB2 (Homo sapiens, UniProt P29323); experiment: KinomeScan; type: binding; details: read-out: % Control
T4 construct: purchased DiscoveRx (Fremont, CA)

FLT4 = biological target: T5, FLT4 (Homo sapiens, UniProt P35916); experiment: KinomeScan; type: binding; details: read-out: % Control
T5 construct: purchased DiscoveRx (Fremont, CA)

IRAK3 = biological target: T6, IRAK3 (Homo sapiens, UniProt Q9Y616); experiment: KinomeScan; type: binding; details: read-out: % Control
T6 construct: purchased DiscoveRx (Fremont, CA)

MKNK1 = biological target: T7, MKNK1 (Homo sapiens, UniProt Q9BUB5); experiment: KinomeScan; type: binding; details: read-out: % Control
T7 construct: purchased DiscoveRx

MST3 = biological target: T8, MST3 (Homo sapiens, UniProt Q9Y6E0); experiment: KinomeScan; type: binding; details: read-out: % Control
T8 construct: purchased DiscoveRx

RET = biological target: T9, RET (Homo sapiens, UniProt P07949); experiment: KinomeScan; type: binding; details: read-out: % Control
T9 construct: purchased DiscoveRx (Fremont, CA)

RIOK2 = biological target: T10, RIOK2 (Homo sapiens, UniProt Q9BVS4); experiment: KinomeScan; type: binding; details: read-out: % Control
T10 construct: purchased DiscoveRx (Fremont, CA)

TSSK1B = biological target: T11, TSSK1B (Homo sapiens, UniProt Q9BXA7); experiment: KinomeScan; type: binding; details: read-out: % Control
T11 construct: purchased DiscoveRx (Fremont, CA)

YANK2 = biological target: T12, YANK2 (Homo sapiens, UniProt Q9NY57); experiment: KinomeScan; type: binding; details: read-out: % Control
T12 construct: purchased DiscoveRx

5-HT2B = biological target: T13, 5-HT2B (Homo sapiens, UniProt P41595); experiment: GPCR Profiler; type: cell-based
T13 construct: host or cells: Chem-1 cells with promiscuous Gα15

CCK2 = biological target: T14, CCK2 (Homo sapiens, UniProt P32239); experiment: GPCR Profiler; type: cell-based
T14 construct: host or cells: Chem-1 cells with promiscuous Gα15

CXCR2 = biological target: T15, CXCR2 (Homo sapiens, UniProt P25025); experiment: GPCR Profiler; type: cell-based
T15 construct: host or cells: Chem-1 cells with Gα15

V1B = biological target: T16, V1B (Homo sapiens, UniProt P47901); experiment: GPCR Profiler; type: cell-based
T16 construct: host or cells: Chem-1 cells with Gα15

HEK293 = experiment: Liperfluo lipid peroxidation, HEK293; type: cell-based, human
Method: (§1) Cells were plated on a 100 mm cell culture dish (CELLTREAT Scientific Products) in 10 mls of DMEM with high glucose, GlutaMAX, HEPES, Penicillin-Streptomycin (ThermoFisher™) and 10% FBS. Cells were incubated overnight at 37° C. in 5% CO2. Media were then replaced with […] fresh media with DMSO, OGM2, or Erastin (APExBIO Technology™) and the cells incubated for 3 days. On the third day, 3 mL fresh media with 2.5 μM Liperfluo™ (Dojindo Molecular Technologies™, Inc.) resuspended in DMSO was added and cells were incubated at 37° C. in 5% CO2 for 1 hour. Cells were subsequently trypsinized for 5 minutes, pelleted by centrifugation, and resuspended in cell sorting media (1% BSA and 1 mM EDTA in PBS pH 7.4). Ten thousand events were recorded on a BD LSR II and the data processed using the FlowJo™ software.

PDX 08-387 cells = experiment: Cell survival, OGM2 with TMZ; type: cell-based, human; details: OGM2 and TMZ, cell killing
Method: GBM neurospheres and low passage PDX models were plated in 96-well plates at 10,000 cells per well in 50 μL of neural stem cell media. The next day, the cells were treated with OGM2 compounds at the indicated concentrations, in triplicates, by adding an equal volume of medium containing 2× the final concentration of compound. Following 72 hours incubation under standard cell culture conditions, relative cell number was assessed using Cell Titer-Glo Luminescent Cell Viability Assay (Promega™) following the manufacturer's instructions. Luminescence was determined using a Cytation 5 reader and Gen5 software package (BioTek™). For U87 and U138 cell lines, one thousand cells were plated per well in a standard 96-well plate and allowed to attach for 24 hours before exposure to concentrations of vehicle, OGM2, or TMZ. Cells were treated for 72 hours and then stained with DAPI. A 10× magnification lens on a LionheartFX (BioTek™) was used to image the wells, and images were stitched together with Gen5 software (BioTek™). Automated nuclei counting was also done using the Gen5 software. Results reported as percent response relative to DMSO control. […]
Where appropriate, ANOVA, or student's T-test were conducted in PRISM. […] For drug interaction and therapeutic interaction, the coefficient of drug interaction (CDI) was calculated as follows: CDI=AB/(A×B). […]

U138 = experiment: Liperfluo lipid peroxidation; type: cell-based, human
Method: as §1
(§2) Where appropriate, ANOVA, or student's T-test were conducted in PRISM. Chi squared T(X) was used for Liperfluo analysis. A value T(X)>4 implies that the two distributions are different with a p<0.01 (99% confidence). For drug interaction and therapeutic interaction, the coefficient of drug interaction (CDI) was calculated as follows: CDI=AB/(A×B). According to the impact of each group, AB is the value of combined treatment and A or B is the value of the single agent group to control group.

U87 [1] = experiment: Liperfluo lipid peroxidation; type: cell-based, human; details: OGM2 and 2Gy ionizing radiation
Method: as §1, §2

U87 [2] = experiment: GSH-Glo Glutathione Assay; type: cell-based, human; details: 2 μM OGM2 for 24 hours
Method: GSH-Glo™ Glutathione Assay (Promega™) was performed according to manufacturer protocol. Briefly, U87 cells were plated at 10,000 cells per well in a 96-well plate. The following day cells were treated with DMSO control vehicle or 2 μM OGM2 for 24 hours. Medium was removed from wells and 100 μl GSH-Glo™ Reagent was added to each well and incubated on a plate shaker for 30 minutes. One hundred microliters Luciferin Detection Reagent was added to each well and mixed briefly. After 15 minutes incubation, luminescence was detected on Promega™ GloMax luminometer.

T15 sequence (P25025 whole entry, species assumed): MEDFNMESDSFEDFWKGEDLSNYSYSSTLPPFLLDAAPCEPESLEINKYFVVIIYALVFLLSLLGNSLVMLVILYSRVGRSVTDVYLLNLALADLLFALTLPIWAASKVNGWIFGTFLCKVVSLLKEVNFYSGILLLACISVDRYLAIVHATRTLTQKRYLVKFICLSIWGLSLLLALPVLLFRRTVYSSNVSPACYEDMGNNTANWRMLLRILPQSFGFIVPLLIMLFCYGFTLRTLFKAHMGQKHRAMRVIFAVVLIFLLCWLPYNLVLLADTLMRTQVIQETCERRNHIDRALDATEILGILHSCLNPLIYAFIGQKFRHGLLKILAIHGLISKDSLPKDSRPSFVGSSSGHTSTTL
T13 sequence (P41595 whole entry): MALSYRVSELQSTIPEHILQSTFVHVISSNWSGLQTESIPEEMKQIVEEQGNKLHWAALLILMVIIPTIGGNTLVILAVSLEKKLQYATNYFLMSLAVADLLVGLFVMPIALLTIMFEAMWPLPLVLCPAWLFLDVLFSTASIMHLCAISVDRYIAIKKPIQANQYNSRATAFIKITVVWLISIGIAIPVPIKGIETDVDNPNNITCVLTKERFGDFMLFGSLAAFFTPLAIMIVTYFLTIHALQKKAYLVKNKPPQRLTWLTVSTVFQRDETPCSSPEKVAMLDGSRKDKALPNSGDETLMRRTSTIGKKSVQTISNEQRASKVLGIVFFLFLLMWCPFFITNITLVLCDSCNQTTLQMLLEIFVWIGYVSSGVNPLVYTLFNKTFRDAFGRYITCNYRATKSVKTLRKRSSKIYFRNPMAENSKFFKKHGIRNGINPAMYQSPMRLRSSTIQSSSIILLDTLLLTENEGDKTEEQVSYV
T14 sequence (P32239 whole entry): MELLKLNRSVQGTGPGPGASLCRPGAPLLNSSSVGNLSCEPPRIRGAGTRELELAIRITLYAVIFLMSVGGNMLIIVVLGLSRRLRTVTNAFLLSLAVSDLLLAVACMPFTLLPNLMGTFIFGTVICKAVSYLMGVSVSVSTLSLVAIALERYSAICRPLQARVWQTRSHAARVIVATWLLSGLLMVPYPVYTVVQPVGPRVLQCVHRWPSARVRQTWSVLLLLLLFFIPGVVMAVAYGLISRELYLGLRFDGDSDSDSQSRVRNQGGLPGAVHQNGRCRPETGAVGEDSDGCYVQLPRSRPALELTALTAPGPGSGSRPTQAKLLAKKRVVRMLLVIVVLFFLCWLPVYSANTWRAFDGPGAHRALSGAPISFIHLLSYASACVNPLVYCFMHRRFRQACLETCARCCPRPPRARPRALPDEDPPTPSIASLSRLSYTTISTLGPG
T16 sequence (P47901 whole entry): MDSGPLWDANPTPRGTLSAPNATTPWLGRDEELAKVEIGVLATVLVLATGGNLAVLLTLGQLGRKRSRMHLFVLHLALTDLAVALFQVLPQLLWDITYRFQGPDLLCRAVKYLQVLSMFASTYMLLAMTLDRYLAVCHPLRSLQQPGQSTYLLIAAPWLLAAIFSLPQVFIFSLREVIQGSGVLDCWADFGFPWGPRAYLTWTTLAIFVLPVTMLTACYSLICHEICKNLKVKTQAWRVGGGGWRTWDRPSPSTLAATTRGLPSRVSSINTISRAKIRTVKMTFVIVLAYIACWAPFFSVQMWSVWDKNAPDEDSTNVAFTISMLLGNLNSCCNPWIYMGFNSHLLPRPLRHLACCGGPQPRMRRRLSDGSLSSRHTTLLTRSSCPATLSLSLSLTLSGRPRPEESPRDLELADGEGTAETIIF
T6 sequence (Q9Y616 whole entry): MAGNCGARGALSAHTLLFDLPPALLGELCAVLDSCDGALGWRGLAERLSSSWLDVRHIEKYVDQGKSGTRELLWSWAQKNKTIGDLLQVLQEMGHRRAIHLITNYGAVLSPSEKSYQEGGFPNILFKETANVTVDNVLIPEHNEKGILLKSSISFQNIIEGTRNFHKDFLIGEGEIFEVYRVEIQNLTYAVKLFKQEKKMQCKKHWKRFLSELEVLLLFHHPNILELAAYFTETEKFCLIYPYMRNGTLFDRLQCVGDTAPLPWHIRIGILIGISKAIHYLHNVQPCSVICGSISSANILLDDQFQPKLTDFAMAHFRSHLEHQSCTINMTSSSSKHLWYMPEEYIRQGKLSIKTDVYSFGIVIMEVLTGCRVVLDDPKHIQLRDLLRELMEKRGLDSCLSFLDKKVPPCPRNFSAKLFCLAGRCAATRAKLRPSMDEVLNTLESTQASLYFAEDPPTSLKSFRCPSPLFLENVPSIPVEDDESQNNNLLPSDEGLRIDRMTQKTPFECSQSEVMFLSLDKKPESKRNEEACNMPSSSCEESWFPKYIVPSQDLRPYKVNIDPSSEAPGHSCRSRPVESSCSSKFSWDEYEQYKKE
T4 sequence (P29323 19-1055): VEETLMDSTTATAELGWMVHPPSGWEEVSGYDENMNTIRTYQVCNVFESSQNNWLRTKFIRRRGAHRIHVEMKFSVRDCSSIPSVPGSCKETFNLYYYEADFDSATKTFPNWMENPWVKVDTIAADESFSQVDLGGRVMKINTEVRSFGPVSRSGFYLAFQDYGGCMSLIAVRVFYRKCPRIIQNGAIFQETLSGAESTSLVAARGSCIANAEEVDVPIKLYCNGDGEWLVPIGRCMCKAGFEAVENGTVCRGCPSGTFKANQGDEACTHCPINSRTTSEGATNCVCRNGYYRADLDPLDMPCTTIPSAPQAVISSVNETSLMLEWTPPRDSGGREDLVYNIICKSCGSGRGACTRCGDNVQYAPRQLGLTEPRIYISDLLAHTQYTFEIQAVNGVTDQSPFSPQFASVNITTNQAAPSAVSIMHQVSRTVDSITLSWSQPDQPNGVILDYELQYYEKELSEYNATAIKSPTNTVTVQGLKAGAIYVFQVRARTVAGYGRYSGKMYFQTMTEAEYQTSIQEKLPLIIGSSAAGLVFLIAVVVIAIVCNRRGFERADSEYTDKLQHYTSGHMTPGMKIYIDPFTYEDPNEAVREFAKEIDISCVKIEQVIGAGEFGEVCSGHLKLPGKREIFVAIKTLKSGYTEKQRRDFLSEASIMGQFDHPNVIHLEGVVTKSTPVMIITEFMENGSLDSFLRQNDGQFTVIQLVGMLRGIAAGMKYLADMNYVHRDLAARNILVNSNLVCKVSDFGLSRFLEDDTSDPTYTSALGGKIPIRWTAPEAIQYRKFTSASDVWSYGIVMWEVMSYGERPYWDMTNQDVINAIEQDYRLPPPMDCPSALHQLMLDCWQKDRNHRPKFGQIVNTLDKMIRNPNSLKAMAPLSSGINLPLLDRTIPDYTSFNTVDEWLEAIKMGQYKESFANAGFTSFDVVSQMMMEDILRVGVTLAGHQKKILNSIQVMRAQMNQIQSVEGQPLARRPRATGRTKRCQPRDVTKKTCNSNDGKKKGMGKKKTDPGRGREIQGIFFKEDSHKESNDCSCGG
T8 sequence (Q9Y6E0 whole entry): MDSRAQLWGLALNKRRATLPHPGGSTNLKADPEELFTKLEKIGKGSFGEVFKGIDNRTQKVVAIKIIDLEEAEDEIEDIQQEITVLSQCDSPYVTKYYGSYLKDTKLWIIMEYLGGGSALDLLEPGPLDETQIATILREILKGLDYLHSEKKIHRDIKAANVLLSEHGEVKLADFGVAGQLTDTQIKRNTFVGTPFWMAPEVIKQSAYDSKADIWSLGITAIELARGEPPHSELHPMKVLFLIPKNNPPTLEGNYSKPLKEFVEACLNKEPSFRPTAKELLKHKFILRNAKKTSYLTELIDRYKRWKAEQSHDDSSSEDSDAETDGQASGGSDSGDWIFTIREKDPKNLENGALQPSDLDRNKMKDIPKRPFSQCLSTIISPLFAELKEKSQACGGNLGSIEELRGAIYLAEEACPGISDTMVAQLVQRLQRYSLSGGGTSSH
T2 sequence (P50613 whole entry): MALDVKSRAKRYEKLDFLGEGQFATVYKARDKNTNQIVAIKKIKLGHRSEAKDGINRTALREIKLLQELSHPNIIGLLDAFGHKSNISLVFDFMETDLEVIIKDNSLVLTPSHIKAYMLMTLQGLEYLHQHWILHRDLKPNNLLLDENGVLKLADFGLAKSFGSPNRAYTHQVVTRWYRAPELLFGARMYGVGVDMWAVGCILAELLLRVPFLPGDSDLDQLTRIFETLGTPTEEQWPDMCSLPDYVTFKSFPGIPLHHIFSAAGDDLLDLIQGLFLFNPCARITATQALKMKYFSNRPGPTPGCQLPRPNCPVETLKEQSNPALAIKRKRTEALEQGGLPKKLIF
T12 sequence (Q9NY57 whole entry): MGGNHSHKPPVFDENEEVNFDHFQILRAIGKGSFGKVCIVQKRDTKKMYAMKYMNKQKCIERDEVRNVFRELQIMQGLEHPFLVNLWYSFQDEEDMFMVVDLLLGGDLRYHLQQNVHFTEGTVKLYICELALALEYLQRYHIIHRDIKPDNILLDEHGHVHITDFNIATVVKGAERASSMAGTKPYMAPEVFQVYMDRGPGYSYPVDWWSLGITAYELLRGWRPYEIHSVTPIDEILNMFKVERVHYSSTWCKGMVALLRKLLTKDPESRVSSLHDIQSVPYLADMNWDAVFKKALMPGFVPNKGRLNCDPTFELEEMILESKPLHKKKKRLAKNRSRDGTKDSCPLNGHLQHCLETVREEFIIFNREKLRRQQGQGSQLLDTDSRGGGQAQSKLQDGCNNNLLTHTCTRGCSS
T11 sequence (Q9BXA7 whole entry): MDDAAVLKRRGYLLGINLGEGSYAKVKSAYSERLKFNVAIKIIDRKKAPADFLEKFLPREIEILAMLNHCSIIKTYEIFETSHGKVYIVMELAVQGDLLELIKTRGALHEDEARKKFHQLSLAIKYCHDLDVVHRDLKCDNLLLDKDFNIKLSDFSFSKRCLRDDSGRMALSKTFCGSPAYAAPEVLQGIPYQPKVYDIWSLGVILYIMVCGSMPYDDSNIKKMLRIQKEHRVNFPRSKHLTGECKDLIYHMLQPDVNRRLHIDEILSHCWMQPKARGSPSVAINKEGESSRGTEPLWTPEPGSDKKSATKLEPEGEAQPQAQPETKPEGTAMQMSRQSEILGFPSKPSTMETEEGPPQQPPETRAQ

## CCc1ccc2c(c1)C1(NN=C(c3cccc4ccccc34)S1)C(=O)N2 (stereo not drawn) [OGM1, 5-ethyl-5′-naphthalen-1-ylspiro[1H-indole-3,2′-3H-1,3,4-thiadiazole]-2-one]
BLK
  remaining binding at 10 µM: 97%
CDK7
  remaining binding at 10 µM: 64%
EIF2AK1
  remaining binding at 10 µM: 100%
EPHB2
  remaining binding at 10 µM: 100%
FLT4
  remaining binding at 10 µM: 100%
IRAK3
  remaining binding at 10 µM: 97%
MKNK1
  remaining binding at 10 µM: 90%
MST3
  remaining binding at 10 µM: 61%
RET
  remaining binding at 10 µM: 100%
RIOK2
  remaining binding at 10 µM: 100%
TSSK1B
  remaining binding at 10 µM: 79%
YANK2
  remaining binding at 10 µM: 100%
5-HT2B; 10 uM
  Antagonism: 0.3
5-HT2B; 12.5 uM
  Agonism: −0.1
CCK2; 10 uM
  Antagonism: 14.9
CCK2; 12.5 uM
  Agonism: −0.4
CXCR2; 10 uM
  Antagonism: −3.1
CXCR2; 12.5 uM
  Agonism: 0.5
V1B; 10 uM
  Antagonism: −2.8
V1B; 12.5 uM
  Agonism: −0.1

## CCc1ccc2c(c1)C1(NN=C(c3ccccc3)S1)C(=O)N2 (stereo not drawn) [OGM2]
HEK293
  lipid peroxidation: did not induce lipid peroxidation
PDX 08-387 cells
  coefficient of drug interaction (CDI): < 0.7
U138; 2 μM
  Chi-squared T(X), lipid peroxidation: 273
U138; 10 μM
  Chi-squared T(X), lipid peroxidation: 592
U138; OGM2 and 2Gy ionizing radiation
  CDI, lipid peroxidation: < 0.006
U87 [1]
  CDI, lipid peroxidation: < 0.06
U87 [2]
  glutathione levels: dramatically reduced glutathione levels

Source: patent US20240327364A1, “THERAPEUTIC TARGETING OF GPR68 TO INDUCE FERROPTOSIS” (University Of Maryland, Baltimore, priority 2023, published 2024)
